Counter-ions that a name gives are not always drawn.
Columns and labels:
[1] = Drug loading of liposomes by remote loading: drug to lipid molar ratio and encapsulation efficiency; format: physicochemical; conditions: 300 mM AS, 2 mg/mL drug
Experimental: The dry lipid was hydrated in a trapping agent, 300 mM ammonium sulfate (AS), for 30 min at the temperature above the transition temperature to form the MLVs. […] After extrusion, unencapsulated trapping agent was removed by dialysis method or diafiltration method against 9.4% sucrose solution or 0.9% NaCl to create a polyatomic ion gradient between the inner aqueous phase and the outer aqueous phase of the empty liposomes.
A reaction mixture containing 10.0 mg/mL of sunitinib (LC Laboratories, USA), empty liposomes (with 20.0 mM of lipids prepared according to Example 1), and 40 mM histidine buffer (pH 7) was incubated at 40° C. for 15 min The unencapsulated sunitinib of the reaction mixture was removed by a Sephadex™ G-50 Fine gel (GE Healthcare, USA) or dialysis bag (Spectrum Labs, USA) against a 9.4% sucrose solution to obtain a liposomal sunitinib formulation. The encapsulated sunitinib concentration and the lipid concentration of the liposomal sunitinib formulation were measured using an ultraviolet/visible (UV/Vis) spectrophotometer to calculate the drug to lipid molar ratio (D/L) of the liposomal sunitinib formulation.
The encapsulation efficiency was calculated by comparing the drug to lipid molar ratio (D/L) of the liposomal sunitinib formulation to the nominal D/L of the reaction mixture, which is dividing the initial added concentration of sunitinib by the initial added concentration of lipid of empty liposome.
An initial loading concentration of 4.0 mg/mL of sunitinib or sunitinib malate was mixed with the empty liposomes according to the procedures of Example 2.

[2] = In vitro release through dialysis bag in rabbit vitreous humor; format: in vitro ADME; conditions: PBS pH 7.4, 37° C., released immediately, FIG. 1
Experimental: Each dialysis bag contained 950 μL of rabbit vitreous humor (Pel-Freez Biologicals, USA) and both ends of the dialysis bags were then sealed. Each dialysis bag was immersed in 25 mL of PBS at pH 7.4 in a 50-mL centrifuge tube and incubated in a water bath at 37±1° C. for 24 hours. At designated time points after incubation (1, 2, 4, 6, 24, 48, 122, 146 and 168 hours), 0.5 mL aliquot from the 25 mL PBS inside each centrifuge tube was sampled and 0.5 mL of fresh PBS was added to replenish the sampled aliquot. Drug concentrations of the sampled aliquots at each time point were analyzed using high performance liquid chromatography (HPLC) to create the in vitro release profile of the liposomal composition.

[3] = liposomes DOPC/cholesterol (66.7/33.3)
[4] = liposomes POPC/cholesterol (66.7/33.3)

EE (%), encapsulation efficiency [1, 3] | Purified D/PL (mole/mole) [1, 3] | EE (%), encapsulation efficiency [1, 4] | Purified D/PL (mole/mole) [1, 4] | time after which release reached a plateau [2] | SMILES
91.3% | 1.24 mole/mole | 66.6% | 0.90 mole/mole |  | Cc1ccc(NC(=O)c2ccc(CN3CCN(C)CC3)cc2)cc1Nc1nccc(-c2cccnc2)n1 [Imatinib, imatinib mesylate]
 |  |  |  | 6 h | CCN(CC)CCNC(=O)c1c(C)[nH]c(/C=C2\C(=O)Nc3ccc(F)cc32)c1C [free sunitinib, sunitinib]
